Where “and” joins values, the source holds several entries; their conditions need not be identical. Identical values can stand only once. Calls of active or inactive are those of the source.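 How the source made its calls: active means compounds giving half or more protection of infected cells from virus-caused growth loss, again on retest; inactive means the rest.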
Tested on: CEM cells HIV-1 protection, formazan growth assay
Assay: NCI AIDS Antiviral Assay
Settings: for IC50: measured here: growth of uninfected CEM cells
In short: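 Human CEM cells, uninfected and HIV-1-infected, received five drug concentrations, and growth was read by soluble formazan assay. Compounds giving at least 50% protection were retested; reproducible 100% protection defined confirmed active.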

Row | Compound | EC50 | outcome | IC50
1 | O=C(O)c1c[nH]c2c([N+](=O)[O-])cccc2c1=O | > 1070 µM | inactive | 9.12 µM
2 | COC(=O)C1=C(C(=O)OC)C2C(C)=CC(C)=CN2C(C(=O)OC)=C1C(=O)OC (stereo unspecified) | > 200 µM | – | > 200 µM
3 | C/C(=N\Nc1ccc2ccccc2n1)c1ccccc1O | > 200 µM | – | 6.46 µM
4 | CCCNC(=O)c1nc(SC)sc1NC(=O)c1ccc([N+](=O)[O-])cc1 | > 200 µM | – | 191 µM
5 | NC(C/[N+]([O-])=N/O)C(=O)O (stereo unspecified) | > 11 µM | – | 2.4 µM
6 | Cc1ccc(/C=C/C(=N/NC(=O)N/N=C(/C=C/c2ccc(C)cc2)C(C)(C)CN2CCCCC2)C(C)(C)CN2CCCCC2)cc1 | > 200 µM | – | 3.02 µM
7 | COc1ccc2c(c1)OC[C@@H]1c3cc(O)c(OCc4ccccc4)cc3O[C@]21C | > 200 µM | – | 24 µM
8 | O=Nc1c(O)cc(O)c2ccccc12 | – | inactive | –
9 | CCSC(=O)C1(C)Cc2ccccc2O1 (stereo unspecified) | – | inactive | –
10 | [Cu+2].[O-]/N=C/c1ccc[oH+]1.[O-]/N=C/c1ccc[oH+]1 | > 200 µM | – | 11.7 µM
11 | CC[C@@H]1C[C@@H](O)[C@@H]2[C@H](O)[C@H](O)CN2C1 | > 200 µM | – | > 200 µM
12 | COc1nc2c(c(=O)n1C)NC(C(O)C(O)CO)C=N2 (stereo unspecified) | 182 µM and 174 µM | – | > 200 µM
13 | O=C(C[P+](c1ccccc1)(c1ccccc1)c1ccccc1)c1ccccc1 | > 200 µM | – | 32.4 µM and 31.6 µM and 37.2 µM
14 | CC1CSC(=S)N1C(=O)N1C(=S)SCC1C (stereo unspecified) | – | inactive | –
15 | N#Cc1c2ccc([N+](=O)[O-])cc2c(=O)n2c1sc1ccccc12 | > 200 µM | – | 10.7 µM
16 | C/C(=C/CNc1ncnc2c1ncn2CCC(=O)O)CO | > 200 µM | – | > 200 µM
17 | CCc1oc2ccc(OC)c3c2c1C=CC=C3 | – | inactive | –

Row | Compound | EC50 | outcome | IC50
18 | CCOc1ccc(C2Oc3c(cccc3OC)C=C2[N+](=O)[O-])cc1OCC (stereo unspecified) | > 200 µM | – | 3.02 µM
19 | CC1(C)/C(=N\O)C2(C#N)CCC1C2 (stereo unspecified) | > 200 µM | – | 166 µM
20 | COC(=O)Nc1cn2c(n1)SCC2 | > 200 µM | – | > 200 µM
21 | CCOP(=O)(Nc1ccccc1P(=O)(OCC)OCC)OCC | > 200 µM | – | > 200 µM
22 | CON(C)C(=O)C1CCCO1 (stereo unspecified) | > 200 µM | – | > 200 µM
23 | COc1ccc([C@@]23CCC(=O)C[C@@H]2N(C)CC3)cc1OC | > 200 µM | – | > 200 µM
24 | CSC1NC(c2ccccc2)=C(C#N)C(=O)N1C1OCC(OC(C)=O)C(OC(C)=O)C1OC(C)=O (stereo unspecified) | > 200 µM | – | 148 µM
25 | O=P(O)(O)OC1C(OP(=O)(O)O)C(OP(=O)(O)O)C(OP(=O)(O)O)C(OP(=O)(O)O)C1OP(=O)(O)O.[Zn+2] (stereo unspecified) | > 100 µM | – | > 100 µM
26 | O=[N+]([O-])c1ccc(NC(=S)Nc2ccccn2)cc1 | > 200 µM | – | 19.1 µM
27 | O=[N+]([O-])c1ccc(CSc2nncc3[nH]cnc23)cc1 | 31.6 µM | – | 63.1 µM
28 | NC(=O)NC1C(C(=O)O)N(Cc2ccccc2)C(=O)N1Cc1ccccc1 (stereo unspecified) | > 490 µM | – | > 490 µM
29 | CCN1C[C@]2(COC)CCC(=O)C34[C@@H]5C[C@@H]6C(O)[C@@H]5[C@](O)(C[C@@H]6OC)[C@@H](C(OC)[C@@H]32)[C@H]14 (stereo partly specified) | – | inactive | –
30 | COC(=O)C1c2c(C)cc3n2C(C=C(C)C3)C1C(=O)OC (stereo unspecified) | 75.9 µM | – | 107 µM
31 | CC(C)(Oc1ccc(Cl)cc1)C(=O)N(C(=O)N1CCCCC1)c1ccccc1 | > 200 µM | – | 13.2 µM
32 | CCc1cc(C(=O)OC)cn1C(=N)c1ccc(Cl)cc1 | > 851 µM | – | > 851 µM
33 | NC(N)=NS(=O)(=O)c1ccc(NC(=O)c2cccn3c(=O)c4ccccc4nc23)cc1 | – | inactive | –
